Experimental data as given in patent publication US10584115B2, “Substituted pyridine and pyrazine BMI-1 inhibitors” (PTC Therapeutics, Inc., priority 2013, dated 2020).
pEC50: −log10 of the molar value. Where two headings read alike, the source gives them in different places.

Tested on: Bmi-1 protein
Experiment: Sandwich ELISA Assay (Bmi-1 protein level in HT-1080 cells after compound treatment)
Assay type: cell-based
Procedure, shortened: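 Sandwich ELISA quantified Bmi-1 protein against recombinant standard (125–8000 pg/mL), with lysates captured overnight at 4 °C and signal by HRP/TMB at 450 nm (570 nm reference). Lysates came from HT-1080 cells incubated 40–48 h with test compounds in 0.5% DMSO.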

[1] = Table 1, Bmi-1 sandwich ELISA, read-out: ELISA EC50 value for Bmi-1 protein
[2] = read-out: ELISA EC50 value for Bmi-1 protein, Table 1, Bmi-1 sandwich ELISA

Compound | pEC50 [1] | pEC50 [2]
Cc1nc2ccc(Cl)cc2n1-c1cncc(Nc2ccc(OC(F)(F)F)cc2)n1 [compound 220, 6-(6-chloro-2-methyl-1H-benzimidazol-1-yl)-N-[4-(trifluoromethoxy)phenyl]pyrazin-2-amine] | 7.00 to 8.00 | 
COc1cc(Nc2cc(C#N)cc(-c3c(C)nc4ccc(F)cn34)n2)ccc1F [compound 314, 2-[(4-fluoro-3-methoxyphenyl)amino]-6-(6-fluoro-2-methylimidazo[1,2-a]pyridin-3-yl)pyridine-4-carbonitrile] | 5.52 to 7.00 | 
N#Cc1cc(Nc2ccc(OC(F)F)cc2)nc(-c2c(CO)nc3ccc(F)cn23)c1 [compound 393, 2-{[4-(difluoromethoxy)phenyl]amino}-6-[6-fluoro-2-(hydroxymethyl)imidazo[1,2-a]pyridin-3-yl]pyridine-4-carbonitrile] | 7.00 to 8.00 | 
Cc1nc2ncccc2n1-c1cc(NC(=O)OC(C)(C)C)cc(Nc2ccc(C(F)(F)F)cc2)n1 [compound 290, tert-butyl[2-(2-methyl-1H-imidazo[4,5-b]pyridin-1-yl)-6-{[4-(trifluoromethyl)phenyl]amino}pyridin-4-yl]carbamate] | 5.52 to 7.00 | 
Cc1nc2cc(Cl)ccc2n1-c1cc(C#N)cc(Nc2ccc(C(F)(F)F)cc2)n1 [compound 344, 2-(5-chloro-2-methyl-1H-benzimidazol-1-yl)-6-{[4-(trifluoromethyl)phenyl]amino}pyridine-4-carbonitrile] | 5.52 to 7.00 | 
COc1ccc(Nc2cncc(-n3c(C(F)(F)F)nc4ccccc43)n2)cc1 [compound 43, N-(4-methoxyphenyl)-6-[2-(trifluoromethyl)-1H-benzimidazol-1-yl]pyrazin-2-amine] | 8.00 to 9.00 | 
COc1ccc(Nc2cccc(-n3c(C)nc4cc(F)c(F)cc43)n2)cc1 [compound 613, 6-(5,6-difluoro-2-methyl-1H-benzimidazol-1-yl)-N-(4-methoxyphenyl)pyridin-2-amine] | 7.00 to 8.00 | 
Cc1nc2ccc(F)cc2n1-c1cccc(Nc2ccc(C(F)(F)F)cc2)n1 [Cpd 607, 6-(6-fluoro-2-methyl-1H-benzimidazol-1-yl)-N-[4-(trifluoromethyl)phenyl]pyridin-2-amine] | 7.00 to 8.00 | 
Cc1ccc(Nc2cc(N)cc(-n3c(C)nc4cc(F)c(F)cc43)n2)cc1 [compound 657, 6-(5,6-difluoro-2-methyl-1H-benzimidazol-1-yl)-N^2-(4-methylphenyl)pyridine-2,4-diamine] | 7.00 to 8.00 | 
Cc1nc2ccccc2n1-c1cccc(Nc2ccc(OC(F)(F)F)cc2)n1 [Cpd 36, 6-(2-methyl-1H-benzimidazol-1-yl)-N-[4-(trifluoromethoxy)phenyl]pyridin-2-amine] | 5.52 to 7.00 | 
Cc1nc2ccc(F)cc2n1-c1cccc(Nc2ccc(OC(F)F)cc2)n1 [Cpd 584, N-[4-(difluoromethoxy)phenyl]-6-(6-fluoro-2-methyl-1H-benzimidazol-1-yl)pyridin-2-amine] | 7.00 to 8.00 | 
FC(F)(F)Oc1ccc(Nc2cncc(-c3c(C(F)(F)F)nn4ccccc34)n2)cc1 [compound 63, N-[4-(trifluoromethoxy)phenyl]-6-[2-(trifluoromethyl)pyrazolo[1,5-a]pyridin-3-yl]pyrazin-2-amine] | 7.00 to 8.00 | 
Cc1cc2nc(C)n(-c3cncc(Nc4ccc(C(F)(F)F)cc4)n3)c2cc1C [compound 386, N-[4-(trifluoromethyl)phenyl]-6-(2,5,6-trimethyl-1H-benzimidazol-1-yl)pyrazin-2-amine] | 5.52 to 7.00 | 
FC(F)(F)c1ccc(Nc2cccc(-c3c(C(F)(F)F)nc4ccccn34)n2)cc1 [Cpd 18, 6-[2-(trifluoromethyl)imidazo[1,2-a]pyridin-3-yl]-N-[4-(trifluoromethyl)phenyl]pyridin-2-amine] |  | 8.00 to 9.00
COc1ccc(Nc2cncc(-c3c(C(F)(F)F)nc4ccccn34)n2)cc1F [Cpd 7, N-(3-fluoro-4-methoxyphenyl)-6-[2-(trifluoromethyl)imidazo[1,2-a]pyridin-3-yl]pyrazin-2-amine] | > 9.00 | 
Cc1nc2ccccc2n1-c1cncc(Nc2ccc(C(F)(F)F)c(CN)c2)n1 [compound 524, N-[3-(aminomethyl)-4-(trifluoromethyl)phenyl]-6-(2-methyl-1H-benzimidazol-1-yl)pyrazin-2-amine] | 5.52 to 7.00 | 
Cc1nc2ccccc2n1-c1cncc(Nc2ccc(OC(F)(F)C(F)F)cc2)n1 [compound 307, 6-(2-methyl-1H-benzimidazol-1-yl)-N-[4-(1,1,2,2-tetrafluoroethoxy)phenyl]pyrazin-2-amine] | 5.52 to 7.00 | 
Cc1nc2ccccc2n1-c1cncc(Nc2nc3ccccc3s2)n1 [compound 420, N-[6-(2-methyl-1H-benzimidazol-1-yl)pyrazin-2-yl]-1,3-benzothiazol-2-amine] | 8.00 to 9.00 | 
[O-][n+]1cc(Nc2ccc(C(F)(F)F)cc2)nc(-c2c(C(F)(F)F)nc3ccc(F)cn23)c1 [compound 538, 6-[6-fluoro-2-(trifluoromethyl)imidazo[1,2-a]pyridin-3-yl]-N-[4-(trifluoromethyl)phenyl]pyrazin-2-amine 4-oxide] | 8.00 to 9.00 | 
FC(F)(F)c1ccc(Nc2cncc(-c3c(C(F)(F)F)nc4sccn34)n2)cc1 [compound 118, 6-[6-(trifluoromethyl)imidazo[2,1-b][1,3]thiazol-5-yl]-N-[4-(trifluoromethyl)phenyl]pyrazin-2-amine] | 8.00 to 9.00 | 

Compound | pEC50 [1] | pEC50 [2]
CCc1nn2ccccc2c1-c1cncc(Nc2ccc(OC)cc2)n1 [compound 627, 6-(2-ethylpyrazolo[1,5-a]pyridin-3-yl)-N-(4-methoxyphenyl)pyrazin-2-amine] | > 9.00 | 
Cc1ccc(Nc2cncc(-c3c(C(F)(F)F)nc4ccc(F)cn34)n2)cc1 [compound 671, 6-[6-fluoro-2-(trifluoromethyl)imidazo[1,2-a]pyridin-3-yl]-N-(4-methylphenyl)pyrazin-2-amine] | 5.52 to 7.00 | 
CCc1nc2ncc(F)cc2n1-c1cncc(Nc2ccc(C(F)(F)F)cc2)n1 [compound 271, 6-(2-ethyl-6-fluoro-1H-imidazo[4,5-b]pyridin-1-yl)-N-[4-(trifluoromethyl)phenyl]pyrazin-2-amine] | 8.00 to 9.00 | 
FC(F)(F)Oc1ccc(Nc2cncc(-c3c(C(F)(F)F)nc4n3CCCC4)n2)cc1 [Cpd 234, N-[4-(trifluoromethoxy)phenyl]-6-[2-(trifluoromethyl)-5,6,7,8-tetrahydroimidazo[1,2-a]pyridin-3-yl]pyrazin-2-amine] | 7.00 to 8.00 | 
COc1ccc(Nc2cncc(-c3cccc4nc(C5CC5)cn34)n2)cc1 [compound 86, 6-(2-cyclopropylimidazo[1,2-a]pyridin-5-yl)-N-(4-methoxyphenyl)pyrazin-2-amine] | 7.00 to 8.00 | 
COc1c(F)cc(Nc2cc(C#N)cc(-c3c(C)nc4ccc(F)cn34)n2)cc1F [compound 313, 2-[(3,5-difluoro-4-methoxyphenyl)amino]-6-(6-fluoro-2-methylimidazo[1,2-a]pyridin-3-yl)pyridine-4-carbonitrile] | 8.00 to 9.00 | 
FC1(F)Oc2ccc(Nc3cncc(-c4c(C(F)(F)F)nn5ccccc45)n3)cc2O1 [compound 92, N-(2,2-difluoro-1,3-benzodioxol-5-yl)-6-[2-(trifluoromethyl)pyrazolo[1,5-a]pyridin-3-yl]pyrazin-2-amine] | 5.52 to 7.00 | 
CCOc1nc2ccccc2n1-c1cncc(Nc2ccc(C(F)(F)F)cc2)n1 [compound 81, 6-(2-ethoxy-1H-benzimidazol-1-yl)-N-[4-(trifluoromethyl)phenyl]pyrazin-2-amine] | 5.52 to 7.00 | 
FC(F)Oc1ccc(Nc2cccc(-n3c(C(F)(F)F)nc4ccccc43)n2)cc1 [Cpd 38, N-[4-(difluoromethoxy)phenyl]-6-[2-(trifluoromethyl)-1H-benzimidazol-1-yl]pyridin-2-amine] | 7.00 to 8.00 | 
CCc1nn2ccccc2c1-c1cncc(Nc2ccc(Cl)cc2)n1 [compound 629, N-(4-chlorophenyl)-6-(2-ethylpyrazolo[1,5-a]pyridin-3-yl)pyrazin-2-amine] | 8.00 to 9.00 | 
FC(F)(F)c1ccc(Nc2cncc(-c3c(C(F)(F)F)nc4n3CCCC4)n2)cc1 [Cpd 232, N-[4-(trifluoromethyl)phenyl]-6-[2-(trifluoromethyl)-5,6,7,8-tetrahydroimidazo[1,2-a]pyridin-3-yl]pyrazin-2-amine] |  | 8.00 to 9.00
FC(F)Oc1ccc(Nc2cncc(-n3c(C(F)(F)F)nc4ccccc43)n2)cc1 [compound 44, N-[4-(difluoromethoxy)phenyl]-6-[2-(trifluoromethyl)-1H-benzimidazol-1-yl]pyrazin-2-amine] | 7.00 to 8.00 | 
Cc1nc2cc(F)c(F)cc2n1-c1cncc(Nc2ccc(N3CCOCC3)nc2)n1 [compound 423, 6-(5,6-difluoro-2-methyl-1H-benzimidazol-1-yl)-N-[6-(morpholin-4-yl)pyridin-3-yl]pyrazin-2-amine] | 7.00 to 8.00 | 
FC(F)Oc1ccc(Nc2cncc(-c3c(C(F)(F)F)nc4n3CCCC4)n2)cc1 [Cpd 233, N-[4-(difluoromethoxy)phenyl]-6-[2-(trifluoromethyl)-5,6,7,8-tetrahydroimidazo[1,2-a]pyridin-3-yl]pyrazin-2-amine] | 8.00 to 9.00 | 
Cc1nc2ccc(O)cn2c1-c1cc(C#N)cc(Nc2ccc(OC(F)(F)F)cc2)n1 [compound 396, 2-(6-hydroxy-2-methylimidazo[1,2-a]pyridin-3-yl)-6-{[4-(trifluoromethoxy)phenyl]amino}pyridine-4-carbonitrile] | 7.00 to 8.00 | 
Cc1nn(C)c(C)c1-c1cncc(Nc2ccc(OC(F)F)cc2)n1 [compound 143, N-[4-(difluoromethoxy)phenyl]-6-(1,3,5-trimethyl-1H-pyrazol-4-yl)pyrazin-2-amine] | > 9.00 | 
Cc1cc2ccccc2n1-c1cncc(Nc2ccc(C(F)(F)F)cc2)n1 [compound 162] | 5.52 to 7.00 | 
N#Cc1ccc(Nc2cncc(-c3c(C(F)(F)F)nc4ccccn34)n2)cc1 [Cpd 23] | 7.00 to 8.00 | 
CCCc1ccc(Nc2cncc(-n3c(C)nc4ccccc43)n2)cc1 [compound 663, 6-(2-methyl-1H-benzimidazol-1-yl)-N-(4-propylphenyl)pyrazin-2-amine] | 7.00 to 8.00 | 
